Reference: patent US20240034737A1, “Heterocyclic Derivatives as P2X7 Receptor Antagonists” (BREYE THERAPEUTICS APS, priority 2020, published 2024)

How the values were obtained:
[1] = target: mP2X7 (Mus musculus (Mouse), UniProt Q9Z1M0); assay: mP2X7 channel calcium-influx assay (Fluo-8 NW, FLIPR TETRA, Bz-ATP stimulation); format: cell-based
Description: (§1) Extracellular binding of Bz-ATP to P2X7 receptor opens the channel and allows Ca^2+ influx into the cells. This Ca^2+ entry was measured in HEK-293 cells stably transfected with P2X7 receptor using Screen Quest™ Fluo-8 No Wash Calcium Assay Kit (AAt Bioquest®, cat. 36316). Once inside the cell, the lipophilic blocking groups of Fluo-8 are cleaved by non-specific cell esterases, resulting in a negatively-charged fluorescent dye that stays inside cells. Its fluorescence increases upon binding to calcium. When HEK-293/P2X7 cells are stimulated with Bz-ATP, Ca^2+ enters the cells and the fluorescence of Fluo-8 NW increases.
(§2) HEK-293 cells stably transfected with P2X7 receptor were seeded overnight in growth medium at 10,000 to 20,000 cells/well in 384-well plate. 24 hours later, the medium was removed, and the cells were pre-loaded at RT for 1 hour with 20 μL/w of Fluo-8 NW. Then 10 μL/w of test compounds and reference antagonist A438079 at 3X-concentration were injected with the […] and the kinetic response over a period of five minutes was monitored.

[2] = target: P2X7 receptor (Homo sapiens (Human), UniProt Q99572); assay: Human P2X7 channel calcium-influx assay (Fluo-8 NW, FLIPR TETRA, Bz-ATP stimulation); format: cell-based; settings: HEK-293 cells stably transfected with P2X7 receptor, Low Divalent Cation Assay Buffer, read-out: hP2X7 IC50
Chain of P2X7 receptor (Q99572 whole entry): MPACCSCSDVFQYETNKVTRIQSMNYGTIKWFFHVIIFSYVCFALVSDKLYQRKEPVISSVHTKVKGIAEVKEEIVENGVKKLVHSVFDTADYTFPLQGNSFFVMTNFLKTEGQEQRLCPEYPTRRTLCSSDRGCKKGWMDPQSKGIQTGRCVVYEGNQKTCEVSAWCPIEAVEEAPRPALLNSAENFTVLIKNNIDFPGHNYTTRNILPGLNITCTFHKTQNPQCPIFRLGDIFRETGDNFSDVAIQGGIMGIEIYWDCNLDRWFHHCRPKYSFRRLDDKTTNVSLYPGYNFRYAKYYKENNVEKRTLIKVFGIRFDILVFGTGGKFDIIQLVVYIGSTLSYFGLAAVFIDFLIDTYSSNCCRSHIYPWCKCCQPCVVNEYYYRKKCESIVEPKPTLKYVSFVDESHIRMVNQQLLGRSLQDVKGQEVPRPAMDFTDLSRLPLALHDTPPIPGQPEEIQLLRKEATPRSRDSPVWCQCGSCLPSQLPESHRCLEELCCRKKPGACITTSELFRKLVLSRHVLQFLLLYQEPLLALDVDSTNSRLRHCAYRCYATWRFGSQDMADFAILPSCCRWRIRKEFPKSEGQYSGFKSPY
Description: as §1, §2

Chain of mP2X7 (Q9Z1M0 whole entry): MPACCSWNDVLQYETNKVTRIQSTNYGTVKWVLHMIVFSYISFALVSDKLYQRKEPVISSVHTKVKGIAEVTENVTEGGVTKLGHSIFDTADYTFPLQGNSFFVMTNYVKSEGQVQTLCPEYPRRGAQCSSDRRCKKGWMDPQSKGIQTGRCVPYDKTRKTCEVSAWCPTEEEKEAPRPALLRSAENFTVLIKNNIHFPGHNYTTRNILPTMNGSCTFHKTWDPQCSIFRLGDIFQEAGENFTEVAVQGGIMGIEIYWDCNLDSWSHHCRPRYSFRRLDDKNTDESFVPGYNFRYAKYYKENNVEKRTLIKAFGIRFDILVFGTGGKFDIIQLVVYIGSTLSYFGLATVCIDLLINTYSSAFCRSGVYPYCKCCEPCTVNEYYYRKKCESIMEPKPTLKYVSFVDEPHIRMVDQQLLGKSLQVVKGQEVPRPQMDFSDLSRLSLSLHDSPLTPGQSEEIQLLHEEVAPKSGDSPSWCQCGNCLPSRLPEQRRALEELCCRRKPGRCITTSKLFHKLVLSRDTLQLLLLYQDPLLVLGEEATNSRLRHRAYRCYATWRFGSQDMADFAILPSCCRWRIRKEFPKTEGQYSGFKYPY

| Structure (SMILES) | IC50 [1] [nM] | IC50 [2] [nM] |
| --- | --- | --- |
| O=C(NCC(c1scnc1C(F)F)N1CCC(Oc2ncccc2Cl)CC1)c1c(F)cccc1Cl (stereo not shown) [Example 47, 2-Chloro-N-(2-{4-[(3-chloropyridin-2-yl)oxy]piperidin-1-yl}-2-[4-(difluoromethyl)-1,3-thiazol-5-yl]ethyl)-6-fluorobenzamide] | 43.9 | 31 |
| N#Cc1cnccc1OC1CCN(C(CNC(=O)c2c(F)cccc2Cl)c2scnc2C(F)F)CC1 (stereo not shown) [Example 50, 2-Chloro-N-(2-{4-[(3-cyanopyridin-4-yl)oxy]piperidin-1-yl}-2-[4-(difluoromethyl)-1,3-thiazol-5-yl]ethyl)-6-fluorobenzamide] | 224 | 89 |
| Cn1ncc2c(OC3CCN(C(CNC(=O)c4c(F)cccc4Cl)c4scnc4C(F)F)CC3)ncnc21 (stereo not shown) [Example 51, 2-Chloro-N-{2-[4-(difluoromethyl)-1,3-thiazol-5-yl]-2-[4-({1-methyl-1H-pyrazolo[3,4-d]pyrimidin-4-yl}oxy)piperidin-1-yl]ethyl}-6-fluorobenzamide] | 68.7 | 62.2 |
| Cc1nnc2c(OC3CCN(C(CNC(=O)c4c(F)cccc4Cl)c4scnc4C(F)F)CC3)nccn12 (stereo not shown) [Example 52, 2-Chloro-N-{2-[4-(difluoromethyl)-1,3-thiazol-5-yl]-2-[4-({3-methyl-[1,2,4]triazolo[4,3-a]pyrazin-8-yl}oxy)piperidin-1-yl]ethyl}-6-fluorobenzamide] | 571 | 274 |
| Cc1cc(OC2CCN(C(CNC(=O)c3c(F)cccc3Cl)c3scnc3C(F)F)CC2)nc(F)n1 (stereo not shown) [Example 54, 2-Chloro-N-{2-[4-(difluoromethyl)-1,3-thiazol-5-yl]-2-{4-[(2-fluoro-6-methylpyrimidin-4-yl)oxy]piperidin-1-yl}ethyl}-6-fluorobenzamide] | 52.9 | 22.8 |
| Cc1ncnc(OC2CCN(C(CNC(=O)c3c(F)cccc3Cl)c3scnc3C(F)F)CC2)c1F (stereo not shown) [Example 56, 2-Chloro-N-{2-[4-(difluoromethyl)-1,3-thiazol-5-yl]-2-{4-[(5-fluoro-6-methylpyrimidin-4-yl)oxy]piperidin-1-yl}ethyl}-6-fluorobenzamide] | 82 | 53.8 |
| O=C(NCC(c1scnc1C(F)F)N1CCC(Oc2ncccc2C(F)(F)F)CC1)c1c(F)cccc1Cl (stereo not shown) [Example 59, 2-Chloro-N-{2-[4-(difluoromethyl)-1,3-thiazol-5-yl]-2-(4-{[3-(trifluoromethyl)pyridin-2-yl]oxy}piperidin-1-yl)ethyl}-6-fluorobenzamide] | 56.1 | 29.4 |
| COc1nccc(OC2CCN(C(CNC(=O)c3c(F)cccc3Cl)c3scnc3C(F)F)CC2)n1 (stereo not shown) [Example 63, 2-Chloro-N-{2-[4-(difluoromethyl)-1,3-thiazol-5-yl]-2-{4-[(2-methoxypyrimidin-4-yl)oxy]piperidin-1-yl}ethyl}-6-fluorobenzamide] | 49.3 | 41.2 |
| COc1ccnc(OC2CCN(C(CNC(=O)c3c(F)cccc3Cl)c3scnc3C(F)F)CC2)n1 (stereo not shown) [Example 64, 2-Chloro-N-{2-[4-(difluoromethyl)-1,3-thiazol-5-yl]-2-{4-[(4-methoxypyrimidin-2-yl)oxy]piperidin-1-yl}ethyl}-6-fluorobenzamide] | 209 | 65.8 |
| Cc1nc(C)c(F)c(OC2CCN(C(CNC(=O)c3c(F)cccc3Cl)c3scnc3C(F)F)CC2)n1 (stereo not shown) [Example 67, 2-Chloro-N-{2-[4-(difluoromethyl)-1,3-thiazol-5-yl]-2-{4-[(5-fluoro-2,6-dimethylpyrimidin-4-yl)oxy]piperidin-1-yl}ethyl}-6-fluorobenzamide] | 64.5 | 62.3 |
| O=C(NCC(c1scnc1C(F)F)N1CCC(Oc2cnccn2)CC1)c1c(F)cccc1Cl (stereo not shown) [Example 70, 2-Chloro-N-{2-[4-(difluoromethyl)-1,3-thiazol-5-yl]-2-[4-(pyrazin-2-yloxy)piperidin-1-yl]ethyl}-6-fluorobenzamidev] | 101 | 50 |
| O=C(NCC(c1scnc1C(F)F)N1CCC(Oc2cccnn2)CC1)c1c(F)cccc1Cl (stereo not shown) [Example 71, 2-Chloro-N-{2-[4-(difluoromethyl)-1,3-thiazol-5-yl]-2-[4-(pyridazin-3-yloxy)piperidin-1-yl]ethyl}-6-fluorobenzamide] | 222 | 58.9 |
| N#Cc1ccnc(OC2CCN(C(CNC(=O)c3c(F)cccc3Cl)c3scnc3C(F)F)CC2)c1 (stereo not shown) [Example 79, 2-Chloro-N-(2-{4-[(4-cyanopyridin-2-yl)oxy]piperidin-1-yl}-2-[4-(difluoromethyl)-1,3-thiazol-5-yl]ethyl)-6-fluorobenzamide] | 41.4 | 30.1 |
| O=C(NCC(c1scnc1C(F)F)N1CCC(COc2nccs2)CC1)c1c(F)cccc1Cl (stereo not shown) [Example 82, 2-chloro-N-{2-[4-(difluoromethyl)-1,3-thiazol-5-yl]-2-{4-[(1,3-thiazol-2-yloxy)methyl]piperidin-1-yl}ethyl}-6-fluorobenzamide] | 41.9 | 15.2 |

These reach a lower IC50 [1]. Values come first.

| IC50 [1] [nM] | IC50 [2] [nM] | Structure (SMILES) |
| --- | --- | --- |
| 38.7 | 41.5 | Cc1nsc(OC2CCN(C(CNC(=O)c3c(F)cccc3Cl)c3scnc3C(F)F)CC2)c1C#N (stereo not shown) [Example 53, 2-Chloro-N-(2-{4-[(4-cyano-3-methyl-1,2-thiazol-5-yl)oxy]piperidin-1-yl}-2-[4-(difluoromethyl)-1,3-thiazol-5-yl]ethyl)-6-fluorobenzamide] |
| 34 | 22.9 | Cc1cnc(F)nc1OC1CCN(C(CNC(=O)c2c(F)cccc2Cl)c2scnc2C(F)F)CC1 (stereo not shown) [Example 55, 2-Chloro-N-{2-[4-(difluoromethyl)-1,3-thiazol-5-yl]-2-{4-[(2-fluoro-5-methylpyrimidin-4-yl)oxy]piperidin-1-yl}ethyl}-6-fluorobenzamide] |
| 33.5 | 22.5 | N#Cc1nccnc1OCC1CCN(C(CNC(=O)c2c(F)cccc2Cl)c2scnc2C(F)F)CC1 (stereo not shown) [Example 92, 2-Chloro-N-[2-(4-{[(3-cyanopyrazin-2-yl)oxy]methyl}piperidin-1-yl)-2-[4-(difluoromethyl)-1,3-thiazol-5-yl]ethyl]-6-fluorobenzamide] |
| 32.7 | 13 | O=C(NCC(c1scnc1C(F)F)N1CCC(COc2nc(Cl)cs2)CC1)c1c(F)cccc1Cl (stereo not shown) [Example 83, 2-Chloro-N-[2-(4-{[(4-chloro-1,3-thiazol-2-yl)oxy]methyl}piperidin-1-yl)-2-[4-(difluoromethyl)-1,3-thiazol-5-yl]ethyl]-6-fluorobenzamide] |
| 30.6 | 27.9 | O=C(NCC(c1scnc1C(F)F)N1CCC(Oc2nccn3nccc23)CC1)c1c(F)cccc1Cl (stereo not shown) [Example 44, 2-Chloro-N-{2-[4-(difluoromethyl)-1,3-thiazol-5-yl]-2-(4-{pyrazolo[1,5-a]pyrazin-4-yloxy}piperidin-1-yl)ethyl}-6-fluorobenzamide] |
| 29.4 | 11.9 | O=C(NCC(c1scnc1C(F)F)N1CCC(Oc2cccc(F)n2)CC1)c1c(F)cccc1Cl (stereo not shown) [Example 72, 2-Chloro-N-{2-[4-(difluoromethyl)-1,3-thiazol-5-yl]-2-{4-[(6-fluoropyridin-2-yl)oxy]piperidin-1-yl}ethyl}-6-fluorobenzamide] |
| 25.7 | 20 | N#Cc1ncccc1OCC1CCN(C(CNC(=O)c2c(F)cccc2Cl)c2scnc2C(F)F)CC1 (stereo not shown) [Example 90, 2-Chloro-N-[2-(4-{[(2-cyanopyridin-3-yl)oxy]methyl}piperidin-1-yl)-2-[4-(difluoromethyl)-1,3-thiazol-5-yl]ethyl]-6-fluorobenzamide] |
| 25.2 | 27.8 | Cc1cccc(OCC2CCN(C(CNC(=O)c3c(F)cccc3Cl)c3scnc3C(F)F)CC2)n1 (stereo not shown) [Example 88, 2-Chloro-N-{2-[4-(difluoromethyl)-1,3-thiazol-5-yl]-2-(4-{[(6-methylpyridin-2-yl)oxy]methyl}piperidin-1-yl)ethyl}-6-fluorobenzamide] |
| 24.1 | 29.2 | Cc1ccnc(OCC2CCN(C(CNC(=O)c3c(F)cccc3Cl)c3scnc3C(F)F)CC2)c1 (stereo not shown) [Example 89, 2-Chloro-N-{2-[4-(difluoromethyl)-1,3-thiazol-5-yl]-2-(4-{[(4-methylpyridin-2-yl)oxy]methyl}piperidin-1-yl)ethyl}-6-fluorobenzamide] |
| 19.5 | 19.4 | O=C(NCC(c1scnc1C(F)F)N1CCC(Oc2nccc3ncccc23)CC1)c1c(F)cccc1Cl (stereo not shown) [Example 49, 2-Chloro-N-{2-[4-(difluoromethyl)-1,3-thiazol-5-yl]-2-[4-(1,6-naphthyridin-5-yloxy)piperidin-1-yl]ethyl}-6-fluorobenzamide] |
| 13.8 | 34 | O=C(NCC(c1scnc1C(F)F)N1CCC(COc2nnnn2-c2ccccc2)CC1)c1c(F)cccc1Cl (stereo not shown) [Example 97, 2-Chloro-N-{2-[4-(difluoromethyl)-1,3-thiazol-5-yl]-2-(4-{[(1-phenyl-1H-1,2,3,4-tetrazol-5-yl)oxy]methyl}piperidin-1-yl)ethyl}-6-fluorobenzamide] |
| 11.5 | 27.4 | O=C(NCC(c1scnc1C(F)F)N1CCC(Oc2cncc(-n3cccn3)n2)CC1)c1c(F)cccc1Cl (stereo not shown) [Example 58, 2-Chloro-N-{2-[4-(difluoromethyl)-1,3-thiazol-5-yl]-2-(4-{[6-(1H-pyrazol-1-yl)pyrazin-2-yl]oxy}piperidin-1-yl)ethyl}-6-fluorobenzamide] |
